Measurements published in patent publication US10905738B2, “Synthetic peptides, prodrugs, pharmaceutical compositions and uses” (Biozeus Desenvolvimento De Produtos Biofarmacêuticos, priority 2018, dated 2021).
Where a SMILES comes first, the peptide text is derived from it.

Test system: monocrotaline-induced model of PAH
Experiment: anti-inflammatory effect in monocrotaline-induced model of PAH (lymph node weight, heart homogenate cytokines by ELISA)
Assay type: in vivo, male Wistar Rats
Conditions: 0.06 mg/kg, MCT rats
Description: In the experiment described in example 5, the animals were killed for postmortem analyses of inflammatory markers.
In 1 out of 5 patients with PAH, the mediastinal lymph nodes are enlarged due to inflammation-related edema (BERGIN, C. J., PARK, K. J. Lymph node enlargement in pulmonary arterial hypertension due to chronic thromboembolism. J Med Imaging Radiat Oncol, 52(1):18-23. 2008). Edematous organs weigh more, due to the increased liquid content, therefore we weighed several organs of the animals of example 5 post-euthanasia.
Samples of hearts of the monocrotaline study were investigated to uncover the potential anti-inflammatory action of SEQ ID NO: 19. Hearts were kept on ice during all sample homogenization processes. Lysis buffer containing 1% protease inhibitor cocktail (Sigma) diluted in phosphate-buffered saline (PBS) was added in a proportion of 1 mL for each sample. Sodium orthovanadate (SIGMA) 1 mM was also added. Tissues were homogenized and then centrifuged at 10,000 g for 10 min. Supernatants of each sample were collected into sterile identified tubes for measurements of total protein and cytokine levels (tumor necrosis factor (TNF)-α, interferon (INF)-γ, and interleukin (IL)-1β).
Total protein values in the samples were measured using the Bradford assay (BioRad, Hercules, Calif., USA), according to manufacturer's instructions. Briefly, the protocol was performed in a microplate in a final volume of 150 μl. A calibration curve linear range between 0.025 and 2.0 mg/ml was prepared with bovine serum albumin (BSA, SIGMA). Protein solutions were assayed in duplicate. Samples were diluted 20-fold into lysis buffer, and then 25 μl from these samples was loaded into each well. Using a multichannel pipet, 125 μl of Quick Start™ Bradford 1× Dye Reagent solution was added to yield a final volume of 150 μl. The samples were incubated at room temperature for 5 min, and the absorbance was then measured with a spectrophotometer at 595 nm (SpectraMax Microplate reader, Molecular Devices, San Jose, Calif., USA). The standard curve was plotted as a linear regression line that was interpolated with the mean absorbance of each sample in order to find a sample's total protein concentration expressed as mg/ml.
Concentrations of TNF-α, INF-γ, and IL-1β were measured using an enzyme-linked immunosorbent assay (ELISA) for heart homogenates. TNF-α (Catalog #900-K54) and INF-γ (Catalog #900-K98) kits were purchased from Peprotech (Rocky Hill, […]., USA) while the IL-1β (DY401) kit was from R&D Systems (Minneapolis, Minn., USA). The assays were performed in accordance with the manufacturer's recommendations.
Data analyses were performed with a statistical software package (Prism version 5.0, Graph-Pad Software, San Diego, Calif.). Data were expressed as mean±SEM. […]

CC[C@H](C)[C@H](NC(=O)[C@H](Cc1c[nH]c2ccccc12)NC(=O)[C@H](Cc1ccccc1)NC(C)=O)C(=O)N[C@@H](C)C(=O)N[C@@H](Cc1c[nH]c2ccccc12)C(=O)N[C@@H](Cc1ccc(O)cc1)C(=O)N[C@@H](CCCCN)C(=O)N[C@@H](CC(C)C)C(=O)N[C@@H](C)C(N)=O [SEQ ID NO: 19, Ac-Phe-Trp-Ile-Ala-Trp-Tyr-Lys-Leu-Ala-NH2] (Ac-FWIAWYKLA-NH2)
IL-1β in heart homogenates (ELISA): decreases the cytokines to values similar to control | INF-γ in heart homogenates (ELISA): decreases the cytokines to values similar to control | TNF-α in heart homogenates (ELISA): decreases the cytokines to values similar to control | edematous weight gain of mediastinal lymph nodes (post-euthanasia organ weight): able to reduce the edematous weight gain
